“Also recorded” adds a separate entry of the source. Read-outs that look alike come from different tables or passages of the source.
Legend:
β2-AR [1] = assay: β-Arrestin2 recruitment; conditions: COS-7, mean ± SEM n≥3; for Emax: % of max, receptor only
β2-AR [2] = assay: β-Arrestin1 recruitment; conditions: COS-7, mean ± SEM n≥3; for Emax: % of max, receptor only
β2-AR [3] = assay: cAMP accumulation; conditions: COS-7, mean ± SEM n≥3
β2-AR [4] = assay: Gαq activation; conditions: HEK293A, mean ± SEM n≥3
GLP-2R = molecular target: T1, GLP-2R (Homo sapiens, UniProt O95838); assay: BRET GPCR–RAMP interaction; assay type: binding; conditions: COS-7
T1 sequence (O95838 1-553): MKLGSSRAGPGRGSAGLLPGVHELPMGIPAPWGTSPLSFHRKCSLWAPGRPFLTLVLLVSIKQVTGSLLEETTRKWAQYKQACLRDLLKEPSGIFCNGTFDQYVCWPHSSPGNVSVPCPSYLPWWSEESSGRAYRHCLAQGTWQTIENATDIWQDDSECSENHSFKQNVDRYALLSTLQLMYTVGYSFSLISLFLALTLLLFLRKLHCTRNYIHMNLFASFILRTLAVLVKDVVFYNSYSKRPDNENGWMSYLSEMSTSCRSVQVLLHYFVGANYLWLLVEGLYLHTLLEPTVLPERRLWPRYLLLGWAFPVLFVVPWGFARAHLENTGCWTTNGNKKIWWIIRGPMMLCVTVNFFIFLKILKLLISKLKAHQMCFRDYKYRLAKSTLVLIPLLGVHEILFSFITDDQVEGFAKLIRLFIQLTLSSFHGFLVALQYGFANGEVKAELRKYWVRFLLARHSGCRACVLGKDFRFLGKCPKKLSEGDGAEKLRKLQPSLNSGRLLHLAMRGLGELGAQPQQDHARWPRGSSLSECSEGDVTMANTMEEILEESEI

SV1 [5] = molecular target: T2, SV1 (Homo sapiens, UniProt Q02643); assay: BRET GPCR–RAMP interaction; assay type: binding; conditions: COS-7; receptor-Rluc8:RAMP-Ypet 1:0.25 to 1:16; pH 7.4, 37 °C; mean ± SEM n≥3
T2 sequence (Q02643 90-423 limits assumed): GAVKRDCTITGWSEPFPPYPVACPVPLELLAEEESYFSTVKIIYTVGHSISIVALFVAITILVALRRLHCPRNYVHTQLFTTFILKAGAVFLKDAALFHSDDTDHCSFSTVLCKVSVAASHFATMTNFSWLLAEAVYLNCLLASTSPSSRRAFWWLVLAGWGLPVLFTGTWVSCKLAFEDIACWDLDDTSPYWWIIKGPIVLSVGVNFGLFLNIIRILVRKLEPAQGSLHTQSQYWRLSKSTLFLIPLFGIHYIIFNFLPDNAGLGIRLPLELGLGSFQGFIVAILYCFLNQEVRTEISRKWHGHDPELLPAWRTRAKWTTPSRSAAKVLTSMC

SCTR [6] = assay: BRET GPCR–RAMP interaction; assay type: binding; conditions: COS-7; receptor-Rluc8:RAMP-Ypet 1:0.25 to 1:16; pH 7.4, 37 °C; mean ± SEM n≥3
GIPR = molecular target: T3, GIPR (Homo sapiens, UniProt P48546); assay: BRET GPCR–RAMP interaction; assay type: binding; conditions: COS-7; receptor-Rluc8:RAMP-Ypet 1:0.25 to 1:16; pH 7.4, 37 °C; mean ± SEM n≥3
T3 sequence (P48546 22-466): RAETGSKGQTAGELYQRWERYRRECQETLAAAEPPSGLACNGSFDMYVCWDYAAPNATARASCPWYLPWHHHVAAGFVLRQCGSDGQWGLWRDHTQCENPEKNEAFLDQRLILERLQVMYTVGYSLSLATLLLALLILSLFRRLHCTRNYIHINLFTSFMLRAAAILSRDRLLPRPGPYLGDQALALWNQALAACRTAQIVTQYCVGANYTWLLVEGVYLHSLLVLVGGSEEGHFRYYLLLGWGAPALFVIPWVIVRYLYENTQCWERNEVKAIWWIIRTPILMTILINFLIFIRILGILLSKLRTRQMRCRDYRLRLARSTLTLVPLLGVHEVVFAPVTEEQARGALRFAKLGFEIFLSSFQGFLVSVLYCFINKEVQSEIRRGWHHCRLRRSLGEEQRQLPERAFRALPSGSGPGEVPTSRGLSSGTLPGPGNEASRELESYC

GLP-1R = GLP-1R (Homo sapiens, UniProt P43220); assay: BRET GPCR–RAMP interaction; assay type: binding; conditions: COS-7; receptor-Rluc8:RAMP-Ypet 1:0.25 to 1:16; pH 7.4, 37 °C; mean ± SEM n≥3
COS-7 cells = assay: RAMP cell surface expression; assay type: cell-based; conditions: co-expression with SCTR, FLAG-RAMP
CLR = CLR (Homo sapiens, UniProt Q16602); assay: BRET GPCR–RAMP interaction; assay type: binding; conditions: COS-7; receptor-Rluc8:RAMP-Ypet 1:0.25 to 1:16; pH 7.4, 37 °C; mean ± SEM n≥3
GHRHR [7] = molecular target: T4, GHRHR (Homo sapiens, UniProt Q02643); assay: BRET GPCR–RAMP interaction; assay type: binding; conditions: COS-7
T4 sequence (Q02643 23-423): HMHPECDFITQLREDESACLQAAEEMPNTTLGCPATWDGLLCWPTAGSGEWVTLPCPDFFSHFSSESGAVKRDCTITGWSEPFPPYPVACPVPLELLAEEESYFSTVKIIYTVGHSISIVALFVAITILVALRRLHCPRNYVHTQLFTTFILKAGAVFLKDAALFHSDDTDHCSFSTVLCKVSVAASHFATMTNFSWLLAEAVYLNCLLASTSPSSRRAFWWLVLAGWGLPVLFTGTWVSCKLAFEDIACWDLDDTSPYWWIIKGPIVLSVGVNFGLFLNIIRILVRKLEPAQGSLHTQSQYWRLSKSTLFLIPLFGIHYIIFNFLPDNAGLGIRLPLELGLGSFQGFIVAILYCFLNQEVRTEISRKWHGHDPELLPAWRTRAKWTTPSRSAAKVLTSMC

GHRHR [8] = molecular target: T4, GHRHR; conditions: HEK293T cells ref [11]; cited from earlier work
GCGR = GCGR (Homo sapiens, UniProt P47871); assay: BRET GPCR–RAMP interaction; assay type: binding; conditions: COS-7; receptor-Rluc8:RAMP-Ypet 1:0.25 to 1:16; pH 7.4, 37 °C; mean ± SEM n≥3
GHRHR [9] = molecular target: T4, GHRHR; assay: Gαq activation; conditions: HEK293-A, HEK293A, % of max, receptor only, mean ± SEM n≥3
SV1 [10] = molecular target: T2, SV1; assay: β-Arrestin1 recruitment; conditions: COS-7, COS-7, % of max, receptor only, mean ± SEM n≥3
GHRHR [11] = molecular target: T4, GHRHR; assay: β-Arrestin1 recruitment; conditions: COS-7, COS-7, % of max, receptor only, mean ± SEM n≥3
SV1 [12] = molecular target: T2, SV1; assay: cAMP accumulation; conditions: COS-7, COS-7, % of max, receptor only, mean ± SEM n≥3
GHRHR [13] = molecular target: T4, GHRHR; assay: cAMP accumulation; conditions: COS-7, COS-7, % of max, receptor only, mean ± SEM n≥3
SV1 [14] = molecular target: T2, SV1; assay: Gαq activation; conditions: HEK293A; no RAMP; data not shown
SCTR [15] = assay: β-Arrestin1 recruitment; conditions: COS-7, % of max, receptor only, mean ± SEM n≥3
SCTR [16] = assay: cAMP accumulation; conditions: COS-7; vector (no RAMP); % of max, receptor only; mean ± SEM n≥3
SCTR [17] = assay: β-Arrestin2 recruitment; conditions: COS-7, % of max, receptor only, mean ± SEM n≥3
SCTR [18] = assay: Gαq activation; conditions: HEK293A, % of max, receptor only, mean ± SEM n≥3
[19] = receptor-Rluc8:RAMP-Ypet 1:0.25 to 1:16, pH 7.4, 37 °C, mean ± SEM n≥3

GLP-1R, sequence (P43220 24-463): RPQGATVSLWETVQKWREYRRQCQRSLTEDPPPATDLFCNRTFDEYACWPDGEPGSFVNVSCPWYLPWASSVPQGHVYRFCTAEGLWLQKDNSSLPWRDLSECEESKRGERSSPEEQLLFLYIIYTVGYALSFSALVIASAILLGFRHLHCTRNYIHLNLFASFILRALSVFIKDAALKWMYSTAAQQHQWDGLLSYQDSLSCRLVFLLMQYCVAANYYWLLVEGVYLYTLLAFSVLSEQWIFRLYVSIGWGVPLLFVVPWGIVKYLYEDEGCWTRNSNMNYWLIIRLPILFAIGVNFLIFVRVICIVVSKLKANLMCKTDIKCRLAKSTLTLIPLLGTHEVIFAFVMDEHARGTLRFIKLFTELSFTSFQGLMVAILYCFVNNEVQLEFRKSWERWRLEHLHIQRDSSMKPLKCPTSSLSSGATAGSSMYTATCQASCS
GCGR, sequence (P47871 26-477, species assumed): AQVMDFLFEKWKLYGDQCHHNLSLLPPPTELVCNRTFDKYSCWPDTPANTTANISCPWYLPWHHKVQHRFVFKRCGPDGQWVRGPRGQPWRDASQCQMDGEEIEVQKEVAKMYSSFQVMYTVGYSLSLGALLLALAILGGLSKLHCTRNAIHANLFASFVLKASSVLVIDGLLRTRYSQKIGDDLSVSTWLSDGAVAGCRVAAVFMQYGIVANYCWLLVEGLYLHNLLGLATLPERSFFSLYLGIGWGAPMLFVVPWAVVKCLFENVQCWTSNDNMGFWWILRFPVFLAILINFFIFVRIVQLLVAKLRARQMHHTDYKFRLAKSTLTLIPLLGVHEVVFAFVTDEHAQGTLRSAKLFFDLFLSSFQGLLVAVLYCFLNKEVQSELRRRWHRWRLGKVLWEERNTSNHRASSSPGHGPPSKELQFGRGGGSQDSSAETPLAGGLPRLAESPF
CLR, sequence (Q16602 23-461): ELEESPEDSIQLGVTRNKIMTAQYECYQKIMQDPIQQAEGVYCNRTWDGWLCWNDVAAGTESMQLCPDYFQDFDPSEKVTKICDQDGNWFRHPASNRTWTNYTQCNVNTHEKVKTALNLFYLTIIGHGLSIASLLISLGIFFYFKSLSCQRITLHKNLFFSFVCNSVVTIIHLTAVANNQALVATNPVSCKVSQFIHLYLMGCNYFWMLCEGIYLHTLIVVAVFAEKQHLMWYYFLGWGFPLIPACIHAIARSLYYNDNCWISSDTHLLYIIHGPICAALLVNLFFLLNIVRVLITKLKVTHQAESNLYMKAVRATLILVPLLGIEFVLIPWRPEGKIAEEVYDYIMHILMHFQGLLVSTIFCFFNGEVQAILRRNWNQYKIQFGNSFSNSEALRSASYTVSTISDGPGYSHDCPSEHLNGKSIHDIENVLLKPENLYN

## (−)-Adrenaline
β2-AR [1]; RAMP1
  Emax: 79.1 ± 5.7%
  pEC50: 6.7 ± 0.2
β2-AR [1]; RAMP2
  Emax: 90 ± 5.4%
  pEC50: 6.5 ± 0.2
β2-AR [1]; RAMP3
  Emax: 79.2 ± 6.1%
  pEC50: 6.4 ± 0.2
β2-AR [1]; vector (no RAMP)
  pEC50: 6.4 ± 0.1
β2-AR [2]; RAMP1
  Emax: 77.3 ± 11.1%
  pEC50: 6 ± 0.4
β2-AR [2]; RAMP2
  Emax: 83.4 ± 15%
  pEC50: 5.8 ± 0.5
β2-AR [2]; RAMP3
  pEC50: 6 ± 0.4
β2-AR [2]; vector (no RAMP)
  pEC50: 6.2 ± 0.3
β2-AR [3]; RAMP1
  pEC50: 9.6 ± 0.1
β2-AR [3]; RAMP2
  pEC50: 9.7 ± 0
β2-AR [3]; RAMP3
  pEC50: 9.7 ± 0.1
β2-AR [3]; vector (no RAMP)
  pEC50: 9.6 ± 0
β2-AR [4]; RAMP1
  pEC50: 6.5 ± 0.2
β2-AR [4]; RAMP2
  pEC50: 6.3 ± 0.4
β2-AR [4]; RAMP3
  pEC50: 6.9 ± 0.3
β2-AR [4]; vector (no RAMP)
  pEC50: 6.9 ± 0.2

## receptor activity-modulating protein 1 [RAMP1]
GLP-2R; BRET
  interaction in words: poor interaction; also recorded: rather weak
GLP-2R; [19]
  Bmax (maximum measured BRET value): Linear fit
SV1 [5]
  Bmax (maximum measured BRET value): 1.364 ± 0.244
SCTR [6]
  Bmax (maximum measured BRET value): 0.573 ± 0.021
GIPR
  Bmax (maximum measured BRET value): 1.316 ± 0.203
GLP-1R
  Bmax (maximum measured BRET value): 2.039 ± 1.234
COS-7 cells
  RAMP cell surface expression: promoted cell surface translocation
CLR
  Bmax (maximum measured BRET value): 0.460 ± 0.017
GHRHR [7]; BRET
  interaction in words: readily observed
GHRHR [7]; [19]
  Bmax (maximum measured BRET value): 1.122 ± 0.193
GHRHR [8]
  interaction in words: insignificant
GCGR
  Bmax (maximum measured BRET value): 1.149 ± 0.109

## CC[C@H](C)[C@H](NC(=O)[C@H](C)NC(=O)[C@H](CC(=O)O)NC(=O)[C@H](C)NC(=O)[C@@H](N)Cc1ccc(O)cc1)C(=O)N[C@@H](Cc1ccccc1)C(=O)N[C@H](C(=O)N[C@@H](CC(N)=O)C(=O)N[C@@H](CO)C(=O)N[C@@H](Cc1ccc(O)cc1)C(=O)N[C@@H](CCCNC(=N)N)C(=O)N[C@@H](CCCCN)C(=O)N[C@H](C(=O)N[C@@H](CC(C)C)C(=O)NCC(=O)N[C@@H](CCC(N)=O)C(=O)N[C@@H](CC(C)C)C(=O)N[C@@H](CO)C(=O)N[C@@H](C)C(=O)N[C@@H](CCCNC(=N)N)C(=O)N[C@@H](CCCCN)C(=O)N[C@@H](CC(C)C)C(=O)N[C@@H](CC(C)C)C(=O)N[C@@H](CCC(N)=O)C(=O)N[C@@H](CC(=O)O)C(=O)N[C@H](C(=O)N[C@@H](CCSC)C(=O)N[C@@H](CO)C(=O)N[C@@H](CCCNC(=N)N)C(=O)N[C@@H](CCC(N)=O)C(=O)N[C@@H](CCC(N)=O)C(=O)NCC(=O)N[C@@H](CCC(=O)O)C(=O)N[C@@H](CO)C(=O)N[C@@H](CC(N)=O)C(=O)N[C@@H](CCC(N)=O)C(=O)N[C@@H](CCC(=O)O)C(=O)N[C@@H](CCCNC(=N)N)C(=O)NCC(=O)N[C@@H](C)C(=O)N[C@@H](CCCNC(=N)N)C(=O)N[C@@H](C)C(=O)N[C@@H](CCCNC(=N)N)C(=O)N[C@@H](CC(C)C)C(N)=O)[C@@H](C)CC)C(C)C)[C@@H](C)O [GHRH, growth hormone-releasing hormone]
GHRHR [9]; RAMP1
  Emax: 91.8 ± 8.3%
GHRHR [9]; RAMP3
  Emax: 87.9 ± 8%
GHRHR [9]; vector (no RAMP)
  Emax: 100 ± 6.9%
SV1 [10]; RAMP1
  Emax: 188 ± 36.8%
SV1 [10]; RAMP2
  Emax: 182 ± 44.2%
SV1 [10]; RAMP3
  Emax: 168 ± 49.1%
SV1 [10]; vector (no RAMP)
  Emax: 100 ± 11.2%
GHRHR [11]; RAMP1
  Emax: 124 ± 42.2%
GHRHR [11]; RAMP2
  Emax: 124 ± 34%
GHRHR [11]; RAMP3
  Emax: 102 ± 45.7%
GHRHR [11]; vector (no RAMP)
  Emax: 100 ± 25.3%
SV1 [12]; RAMP1
  Emax: 100 ± 3.4%
SV1 [12]; RAMP2
  Emax: 102 ± 4.2%
SV1 [12]; RAMP3
  Emax: 100 ± 2%
SV1 [12]; vector (no RAMP)
  Emax: 100 ± 1.8%
GHRHR [13]; RAMP1
  Emax: 104 ± 1.2%
GHRHR [13]; RAMP2
  Emax: 102 ± 1.4%
GHRHR [13]; RAMP3
  Emax: 100 ± 1.5%
SV1 [14]
  Gαq response, receptor alone: did not affect Gαq response

## secretin
SCTR [15]; RAMP1
  Emax: 91.8 ± 3.6%
SCTR [15]; RAMP3
  Emax: 69.1 ± 4.9∗∗ %
SCTR [15]; vector (no RAMP)
  Emax: 100 ± 5.6%
SCTR [16]
  Emax: 100 ± 1%
SCTR [17]; RAMP1
  Emax: 81 ± 6.2%
SCTR [17]; RAMP3
  Emax: 67 ± 4.2∗∗ %
SCTR [17]; vector (no RAMP)
  Emax: 100 ± 4%
SCTR [18]; RAMP1
  Emax: 127.7 ± 13.5%
SCTR [18]; RAMP3
  Emax: 97.8 ± 21.1%
SCTR [18]; vector (no RAMP)
  Emax: 100 ± 14.1%

— paper PMC8897147 (Acta Pharmaceutica Sinica. B, 2021)
